Test results from patent US10285989B2, “Pyrimidinone amide compounds as PDE2 inhibitors” (Merck Sharp & Dohme Corp., priority 2015, dated 2019).
Read-outs that look alike come from different tables or passages of the source.

Key:
human PDE2A1 = human PDE2A1 (Homo sapiens (Human), UniProt O00408); assay: PDE2 IMAP FP inhibition assay, human PDE2A1 (selectivity panel format); assay type: biochemical
Method in brief: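 IMAP fluorescence polarization assay; substrate 50 nM FAM-cAMP with 1000 nM cGMP, enzyme at ~20% conversion, in 10 mM Tris pH 7.2, 10 mM MgCl2, 1 mM DTT, 0.01% Tween-20. 60 min room temperature, stopped with IMAP binding reagent, 1 h, then parallel/perpendicular fluorescence read.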

[1] = target: P-glycoprotein (P-gp, rat Mdr1a) (Rattus norvegicus, UniProt Q6PSM0); assay: P-gp transport, experimental BA/AB ratio, rat LLC-Mdr1a; assay type: in vitro ADME; conditions: LLC-PK1; rat LLC-Mdrla; 1 μM substrate concentration
Sequence of P-glycoprotein (P-gp, rat Mdr1a) (Q6PSM0 1-1272): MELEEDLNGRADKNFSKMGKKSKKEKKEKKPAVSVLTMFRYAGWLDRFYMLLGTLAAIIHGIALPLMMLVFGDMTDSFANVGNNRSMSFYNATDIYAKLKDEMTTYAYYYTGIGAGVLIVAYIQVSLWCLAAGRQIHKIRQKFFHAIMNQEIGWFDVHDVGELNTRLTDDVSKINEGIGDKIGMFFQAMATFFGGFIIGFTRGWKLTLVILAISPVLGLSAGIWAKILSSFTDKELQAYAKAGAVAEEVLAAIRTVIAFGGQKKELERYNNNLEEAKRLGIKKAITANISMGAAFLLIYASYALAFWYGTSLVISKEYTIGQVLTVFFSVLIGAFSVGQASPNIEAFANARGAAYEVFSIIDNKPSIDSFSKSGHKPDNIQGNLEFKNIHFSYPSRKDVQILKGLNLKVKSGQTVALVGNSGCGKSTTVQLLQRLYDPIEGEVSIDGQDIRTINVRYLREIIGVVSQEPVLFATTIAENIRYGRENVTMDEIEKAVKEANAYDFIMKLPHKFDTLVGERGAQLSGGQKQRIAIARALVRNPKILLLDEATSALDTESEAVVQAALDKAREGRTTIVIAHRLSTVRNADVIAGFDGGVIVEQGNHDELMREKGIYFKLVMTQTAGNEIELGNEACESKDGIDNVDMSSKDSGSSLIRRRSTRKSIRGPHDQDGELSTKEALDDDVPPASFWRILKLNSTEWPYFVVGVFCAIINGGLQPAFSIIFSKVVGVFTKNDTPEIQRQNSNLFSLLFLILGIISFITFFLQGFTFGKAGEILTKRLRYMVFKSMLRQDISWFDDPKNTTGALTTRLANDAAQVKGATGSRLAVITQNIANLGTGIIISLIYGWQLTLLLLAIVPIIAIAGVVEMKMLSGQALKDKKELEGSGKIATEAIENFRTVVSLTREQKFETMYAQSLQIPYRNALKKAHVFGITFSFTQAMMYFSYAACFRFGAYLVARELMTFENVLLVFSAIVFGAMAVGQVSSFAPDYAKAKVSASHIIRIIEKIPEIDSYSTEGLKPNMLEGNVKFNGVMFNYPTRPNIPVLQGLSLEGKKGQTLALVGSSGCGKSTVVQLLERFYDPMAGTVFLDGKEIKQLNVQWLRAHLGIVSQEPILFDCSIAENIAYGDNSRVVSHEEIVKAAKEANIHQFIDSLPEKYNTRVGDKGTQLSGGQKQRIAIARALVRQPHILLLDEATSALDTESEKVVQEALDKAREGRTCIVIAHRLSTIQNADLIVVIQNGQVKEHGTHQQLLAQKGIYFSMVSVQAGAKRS
Text: (§1) See Doan et al. “Passive permeability and P-glycoprotein-mediated efflux differentiate central nervous system (CNS) and non-CNS marketed drugs”, J. Pharm. Exper. […] Desirable human BA/AB ratio is less than 2.0. […] See, for example, Desai, et al. Integration of in Silico and in Vitro Tools for Scaffold Optimization during Drug Discovery: Predicting P-glycoprotein Efflux” Mol. Pharmac.

P-glycoprotein (P-gp) = P-glycoprotein (P-gp) (Homo sapiens (Human), UniProt P08183); assay: P-gp transport, experimental BA/AB ratio, human; assay type: in vitro ADME; conditions: LLC-PK1, 1 μM substrate concentration
Sequence of P-glycoprotein (P-gp) (P08183 whole entry): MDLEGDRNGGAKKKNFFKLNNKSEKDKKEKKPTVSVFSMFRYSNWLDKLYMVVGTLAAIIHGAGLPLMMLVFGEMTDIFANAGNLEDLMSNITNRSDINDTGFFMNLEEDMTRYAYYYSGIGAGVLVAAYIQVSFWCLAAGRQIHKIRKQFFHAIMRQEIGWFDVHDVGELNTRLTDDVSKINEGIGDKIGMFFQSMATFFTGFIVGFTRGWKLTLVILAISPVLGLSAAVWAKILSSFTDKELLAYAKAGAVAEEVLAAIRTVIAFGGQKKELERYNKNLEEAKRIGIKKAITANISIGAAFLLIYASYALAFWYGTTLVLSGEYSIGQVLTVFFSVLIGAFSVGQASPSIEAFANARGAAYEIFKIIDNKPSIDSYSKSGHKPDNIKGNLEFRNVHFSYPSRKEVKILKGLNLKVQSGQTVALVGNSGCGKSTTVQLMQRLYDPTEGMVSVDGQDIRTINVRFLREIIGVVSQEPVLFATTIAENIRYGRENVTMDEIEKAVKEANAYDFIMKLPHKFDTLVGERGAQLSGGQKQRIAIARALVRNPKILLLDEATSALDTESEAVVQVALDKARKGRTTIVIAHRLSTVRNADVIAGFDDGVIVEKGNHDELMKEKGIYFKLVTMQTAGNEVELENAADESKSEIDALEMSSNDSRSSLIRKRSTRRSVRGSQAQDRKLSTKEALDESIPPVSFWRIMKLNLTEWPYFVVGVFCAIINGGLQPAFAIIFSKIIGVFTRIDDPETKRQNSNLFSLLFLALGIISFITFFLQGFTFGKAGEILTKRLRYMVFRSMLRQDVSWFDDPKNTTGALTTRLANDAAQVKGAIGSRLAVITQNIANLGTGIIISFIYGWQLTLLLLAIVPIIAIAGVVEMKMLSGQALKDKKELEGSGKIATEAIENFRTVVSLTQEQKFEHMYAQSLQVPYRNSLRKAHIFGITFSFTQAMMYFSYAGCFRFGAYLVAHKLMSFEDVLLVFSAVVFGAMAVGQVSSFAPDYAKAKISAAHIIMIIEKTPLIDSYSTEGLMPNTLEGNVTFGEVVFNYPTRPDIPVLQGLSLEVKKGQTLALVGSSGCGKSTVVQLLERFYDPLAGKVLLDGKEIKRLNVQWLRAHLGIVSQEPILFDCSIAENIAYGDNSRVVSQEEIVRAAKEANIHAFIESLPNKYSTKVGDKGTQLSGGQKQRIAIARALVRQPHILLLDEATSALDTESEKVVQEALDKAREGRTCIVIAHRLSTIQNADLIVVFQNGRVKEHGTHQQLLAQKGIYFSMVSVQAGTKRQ
Text: as §1

Rhesus PDE2A3 = Rhesus PDE2A3 (Macaca mulatta, UniProt B3VTJ2); assay: PDE2 fluorescence polarization (IMAP FP) inhibition assay, rhesus PDE2A3; assay type: biochemical, rhesus macaque
Sequence of Rhesus PDE2A3 (B3VTJ2 1-941): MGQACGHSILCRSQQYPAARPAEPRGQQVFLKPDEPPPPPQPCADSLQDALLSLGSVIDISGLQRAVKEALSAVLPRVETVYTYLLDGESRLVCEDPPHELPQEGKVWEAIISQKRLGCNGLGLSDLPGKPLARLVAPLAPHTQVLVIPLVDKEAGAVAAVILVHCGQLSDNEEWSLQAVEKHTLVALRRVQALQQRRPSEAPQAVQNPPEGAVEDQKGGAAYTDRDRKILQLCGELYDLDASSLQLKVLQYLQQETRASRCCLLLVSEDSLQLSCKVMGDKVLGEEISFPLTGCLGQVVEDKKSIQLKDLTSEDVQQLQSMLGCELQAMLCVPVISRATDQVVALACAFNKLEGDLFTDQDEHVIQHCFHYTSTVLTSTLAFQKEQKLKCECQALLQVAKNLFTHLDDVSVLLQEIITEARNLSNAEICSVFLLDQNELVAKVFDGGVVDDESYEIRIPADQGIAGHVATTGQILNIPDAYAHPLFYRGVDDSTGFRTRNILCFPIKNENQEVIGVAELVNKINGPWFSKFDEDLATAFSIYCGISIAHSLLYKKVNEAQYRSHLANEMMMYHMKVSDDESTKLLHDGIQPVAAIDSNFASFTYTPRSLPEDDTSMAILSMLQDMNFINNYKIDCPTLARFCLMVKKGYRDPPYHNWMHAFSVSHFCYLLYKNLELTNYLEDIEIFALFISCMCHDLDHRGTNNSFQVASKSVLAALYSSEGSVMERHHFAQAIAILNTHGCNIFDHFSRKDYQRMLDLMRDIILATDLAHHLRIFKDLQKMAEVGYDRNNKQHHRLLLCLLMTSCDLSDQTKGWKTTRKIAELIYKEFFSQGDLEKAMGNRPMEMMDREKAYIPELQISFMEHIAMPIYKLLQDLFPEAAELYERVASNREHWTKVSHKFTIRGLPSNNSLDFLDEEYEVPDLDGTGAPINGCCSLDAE

[2] = Lab B, read-out: Human PDE2 Ki (nM) - Lab B
[3] = Lab B, read-out: Rhesus PDE2 Ki (nM) - Lab B
[4] = Lab A, read-out: Human PDE2 Ki (nM) - Lab A
[5] = Lab A, read-out: Rhesus PDE2 Ki (nM) - Lab A

Sequence of human PDE2A1 (O00408 other isoform, or with tags, fused parts or gaps): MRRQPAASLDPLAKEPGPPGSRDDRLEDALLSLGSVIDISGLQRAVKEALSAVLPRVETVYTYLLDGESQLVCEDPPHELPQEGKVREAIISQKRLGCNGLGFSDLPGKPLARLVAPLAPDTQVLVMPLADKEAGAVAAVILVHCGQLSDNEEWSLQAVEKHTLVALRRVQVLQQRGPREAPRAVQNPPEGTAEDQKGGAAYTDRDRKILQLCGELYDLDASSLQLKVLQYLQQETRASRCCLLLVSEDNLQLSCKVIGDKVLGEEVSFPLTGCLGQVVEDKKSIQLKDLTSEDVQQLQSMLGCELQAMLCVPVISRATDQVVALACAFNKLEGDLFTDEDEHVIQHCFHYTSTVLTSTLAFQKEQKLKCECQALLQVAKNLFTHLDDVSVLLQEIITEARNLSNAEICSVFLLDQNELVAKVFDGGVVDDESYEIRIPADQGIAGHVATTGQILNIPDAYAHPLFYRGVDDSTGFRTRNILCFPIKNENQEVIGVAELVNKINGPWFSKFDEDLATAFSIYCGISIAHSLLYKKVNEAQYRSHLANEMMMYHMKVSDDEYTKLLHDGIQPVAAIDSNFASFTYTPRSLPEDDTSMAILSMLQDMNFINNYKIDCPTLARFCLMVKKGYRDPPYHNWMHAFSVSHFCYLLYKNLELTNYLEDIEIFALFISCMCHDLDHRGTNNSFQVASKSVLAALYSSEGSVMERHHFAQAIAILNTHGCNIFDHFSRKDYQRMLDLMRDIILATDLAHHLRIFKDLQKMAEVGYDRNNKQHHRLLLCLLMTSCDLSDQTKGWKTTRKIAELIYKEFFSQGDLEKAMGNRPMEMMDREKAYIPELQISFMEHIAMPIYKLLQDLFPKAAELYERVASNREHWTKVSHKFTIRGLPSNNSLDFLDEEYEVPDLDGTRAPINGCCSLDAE

SMILES	Ki (human PDE2A1; [2])	efflux ratio at 1 μM [1]	efflux ratio at 1 μM (P-glycoprotein (P-gp))	Ki (Rhesus PDE2A3; [3])	Ki (human PDE2A1; [4])	Ki (Rhesus PDE2A3; [5])
CN(C)c1nc(C(=O)N[C@@H](c2ccc(C(C)(F)F)cc2)C(C)(C)C)cc(=O)[nH]1 [Example 76, N-{(1R)-1-[4-(1,1-difluoroethyl)phenyl]-2,2-dimethylpropyl}-2-(dimethylamino)-6-oxo-1,6-dihydropyrimidine-4-carboxamide]	0.12 nM	4.5	1.6	0.11 nM		
CC(C)[C@@H](NC(=O)c1cc(=O)[nH]c(N(C)C)n1)c1ccc(C(C)(F)F)c(F)c1 [Example 77, N-{(1R)-1-[4-(1,1-difluoroethyl)-3-fluorophenyl]-2-methylpropyl}-2-(dimethylamino)-6-oxo-1,6-dihydropyrimidine-4-carboxamide]	0.19 nM	7.3	1.1	0.21 nM		
COc1cc(C(F)(F)F)ccc1C(C)(C)NC(=O)c1cc(=O)[nH]c(N(C)C)n1 [Example 79, 2-(dimethylamino)-N-{1-[2-methoxy-4-(trifluoromethyl)phenyl]-1-methylethyl}-6-oxo-1,6-dihydropyrimidine-4-carboxamide]	7.7 nM	6.2	0.9	6.4 nM		
C[C@@H](NC(=O)c1cc(=O)[nH]c(N(C)C)n1)c1ccc(OC(F)(F)F)cc1 [Example 87, 2-(dimethylamino)-6-oxo-N-{(1R)-1-[4-(trifluoromethoxy)phenyl]ethyl}-1,6-dihydropyrimidine-4-carboxamide]		2.2	0.5		0.74 nM	1.1 nM
C[C@@H](NC(=O)c1cc(=O)[nH]c(N(C)C)n1)c1ccc(OC(F)(F)F)c(F)c1 [Example 90, 2-(dimethylamino)-N-{(1R)-1-[3-fluoro-4-(trifluoromethoxy)phenyl]ethyl}-6-oxo-1,6-dihydropyrimidine-4-carboxamide]		2.7	0.5		0.28 nM	0.69 nM
CC(C)[C@@H](NC(=O)c1cc(=O)[nH]c(N(C)C)n1)c1ccc(OC(F)(F)F)cc1 [Example 91, 2-(dimethylamino)-N-{(1R)-2-methyl-1-[4-(trifluoromethoxy)phenyl]propyl}-6-oxo-1,6-dihydropyrimidine-4-carboxamide]		5.1	0.6		0.19 nM	0.64 nM

Second part, led by results:

Ki (human PDE2A1; [2])	efflux ratio at 1 μM [1]	efflux ratio at 1 μM (P-glycoprotein (P-gp))	Ki (Rhesus PDE2A3; [3])	SMILES	Ki (human PDE2A1; [4])	Ki (Rhesus PDE2A3; [5])
0.79 nM	1.7	0.4	0.65 nM	CN(C)c1nc(C(=O)NC(C)(C)c2ccc(C(F)(F)F)cc2Cl)cc(=O)[nH]1 [Example 80, N-{1-[2-chloro-4-(trifluoromethyl)phenyl]-1-methylethyl}-2-(dimethylamino)-6-oxo-1,6-dihydropyrimidine-4-carboxamide]		
0.69 nM	1.8	0.3	0.51 nM	CC[C@@H](NC(=O)c1cc(=O)[nH]c(N(C)C)n1)c1ccc(SC(F)(F)F)cc1 [Example 88, 2-(dimethylamino)-6-oxo-N-[(1R)-1-{4-[(trifluoromethyl)sulfanyl]phenyl}propyl]-1,6-dihydropyrimidine-4-carboxamide]	5.05 nM	0.61 nM
	2.9	0.4		C[C@@H](NC(=O)c1cc(=O)[nH]c(N(C)C)n1)c1ccc(S(F)(F)(F)(F)F)cc1 [Example 89, 2-(dimethylamino)-6-oxo-N-{(1R)-1-[4-(pentafluoro-λ^6-sulfanyl)phenyl]ethyl}-1,6-dihydropyrimidine-4-carboxamide]	0.41 nM	1.1 nM
	1.7	0.4		CN(C)c1nc(C(=O)NC2(c3ccc(SC(F)(F)F)cc3)CC2)cc(=O)[nH]1 [Example 92, 2-(dimethylamino)-6-oxo-N-(1-{4-[(trifluoromethyl)sulfanyl]phenyl}cyclopropyl)-1,6-dihydropyrimidine-4-carboxamide]	1.8 nM	2.5 nM
